This experiment has as its target T1, GRP44 (CRTH2) (Homo sapiens, UniProt Q9Y5Y4).
T1 sequence (Q9Y5Y4 1-395): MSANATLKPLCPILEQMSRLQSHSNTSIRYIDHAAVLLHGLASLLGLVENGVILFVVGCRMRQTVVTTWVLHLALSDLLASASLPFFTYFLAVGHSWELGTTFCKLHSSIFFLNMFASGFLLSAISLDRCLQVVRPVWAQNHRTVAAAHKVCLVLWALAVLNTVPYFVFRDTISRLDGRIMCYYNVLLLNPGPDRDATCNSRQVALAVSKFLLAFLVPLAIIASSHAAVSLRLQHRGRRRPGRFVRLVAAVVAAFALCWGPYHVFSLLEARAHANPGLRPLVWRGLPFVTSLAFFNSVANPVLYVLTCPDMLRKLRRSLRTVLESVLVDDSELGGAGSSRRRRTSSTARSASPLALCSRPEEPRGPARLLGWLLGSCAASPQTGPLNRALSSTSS
As to the kind of experiment: Inhibition of [3H]PGD2 at GRP44 (CRTH2). Type of experiment: binding. The text has this: A model using theoretical size and electronic descriptors ranked the angiotensin AT2 and angiotensin AT1 receptors to be closely related to GRP44 (CRTH2) with respect to ligand-binding features in the binding site.

As for `CCOc1nc2cccc(C(=O)O)c2n1Cc1ccc(-c2ccccc2-c2nnn[nH]2)cc1` [candesartan], where the note is “angiotensin II ligand found via the related receptor”, the “binding to CRTH2 (in words)” value is reported as “also binding to CRTH2”. Besides, the IC50 (in general, the concentration at which inhibition is half-maximal) (radioligand [3H]PGD2) stood at 2100 nM.

For the origin of these results see US20070156342A1, “Pseudo-sequence method for comparing 7tm receptors with respect to the physico-chemical properties of their binding sites” (7TM PHARMA A/S, priority 2003, published 2007).
